Measured values as given in patent publication US11395857B2, “Radiolabeled melanocortin 1 receptor-specific alpha-melanocyte-stimulating hormone analogues for imaging or therapy” (PROVINCIAL HEALTH SERVICES AUTHORITY, priority 2018, dated 2022).
Read-outs that look alike come from different tables or passages of the source.

Experiments:
[1] = Biodistribution of 177Lu-labeled αMSH analogues in mice bearing B16F10 mouse melanoma; assay type: in vivo, C57BL/6J mice; settings: mouse, iv, total radioactivity, C57BL/6J mice, B16F10 melanoma
Description: (§1) The B16-F10 mouse melanoma cells were cultured and inoculated in mice as described in Example 1.
(§2) For biodistribution studies, approximately 1-2 MBq of ^177Lu-labeled αMSH analogues via tail vein under anesthesia. At 1, 4, 24, and 120 h p.i., the mice were euthanized by CO2 inhalation. Organs/tissues were harvested and the radioactivity was measured as described in Example 1.

B16F10 mouse melanoma = experiment: as above; assay type: in vivo, C57BL/6J mice; settings: C57BL/6J mice, B16F10 melanoma
Description: as §1, §2

CCCC[C@H](NC(=O)CN1CCC(NC(=O)CN2CCN(CC(=O)O)CCN(CC(=O)O)CCN(CC(=O)O)CC2)CC1)C(=O)N[C@H]1CC(=O)NCCCC[C@@H](C(N)=O)N(C)C(=O)[C@H](Cc2c[nH]c3ccccc23)NC(=O)[C@H](CCCNC(=N)N)N(C)C(=O)[C@@H](Cc2ccccc2)NC(=O)[C@H](Cc2c[nH]cn2)NC1=O [^177Lu-labeled CCZ01106, metal not drawn]
tissue uptake at 1 h ([1]; male, seminal glands, 1 h p.i., read-out: Biodistribution, Seminal glands): 0.22 ± 0.35 %ID/g | tissue uptake at 4 h ([1]; male, seminal glands, 4 h p.i., read-out: Biodistribution, Seminal glands): 0.02 %ID/g | tissue uptake at 24 h ([1]; male, seminal glands, 24 h p.i., read-out: Biodistribution, Seminal glands): 0.01 %ID/g | tissue uptake at 120 h ([1]; male, seminal glands, 120 h p.i., read-out: Biodistribution, Seminal glands): 0.01 ± 0.01 %ID/g | tissue uptake at 1 h ([1]; male, testes, 1 h p.i., read-out: Biodistribution, Testes): 0.17 ± 0.06 %ID/g | tissue uptake at 4 h ([1]; male, testes, 4 h p.i., read-out: Biodistribution, Testes): 0.04 %ID/g | tissue uptake at 24 h ([1]; male, testes, 24 h p.i., read-out: Biodistribution, Testes): 0.03 %ID/g | tissue uptake at 120 h ([1]; male, testes, 120 h p.i., read-out: Biodistribution, Testes): 0.02 %ID/g | tissue uptake at 1 h ([1]; adrenal glands, 1 h p.i., read-out: Biodistribution, Adrenal glands): 0.54 ± 0.28 %ID/g | tissue uptake at 4 h ([1]; adrenal glands, 4 h p.i., read-out: Biodistribution, Adrenal glands): 0.13 ± 0.06 %ID/g | tissue uptake at 24 h ([1]; adrenal glands, 24 h p.i., read-out: Biodistribution, Adrenal glands): 0.23 ± 0.18 %ID/g | tissue uptake at 120 h ([1]; adrenal glands, 120 h p.i., read-out: Biodistribution, Adrenal glands): 0.02 ± 0.02 %ID/g | tissue uptake at 1 h ([1]; blood, 1 h p.i., read-out: Biodistribution, Blood): 0.49 ± 0.22 %ID/g | tissue uptake at 4 h ([1]; blood, 4 h p.i., read-out: Biodistribution, Blood): 0.02 %ID/g | tissue uptake at 24 h ([1]; blood, 24 h p.i., read-out: Biodistribution, Blood): 0.01 %ID/g | tissue uptake at 1 h ([1]; bone, 1 h p.i., read-out: Biodistribution, Bone): 0.18 ± 0.04 %ID/g | tissue uptake at 4 h ([1]; bone, 4 h p.i., read-out: Biodistribution, Bone): 0.07 ± 0.02 %ID/g | tissue uptake at 24 h ([1]; bone, 24 h p.i., read-out: Biodistribution, Bone): 0.06 ± 0.01 %ID/g | tissue uptake at 120 h ([1]; bone, 120 h p.i., read-out: Biodistribution, Bone): 0.04 ± 0.01 %ID/g | tissue uptake at 1 h ([1]; brain, 1 h p.i., read-out: Biodistribution, Brain): 0.02 %ID/g | tissue uptake at 4 h ([1]; brain, 4 h p.i., read-out: Biodistribution, Brain): 0.01 %ID/g | tissue uptake at 24 h ([1]; brain, 24 h p.i., read-out: Biodistribution, Brain): 0.01 %ID/g | tissue uptake at 1 h ([1]; fat, 1 h p.i., read-out: Biodistribution, Fat): 0.05 ± 0.02 %ID/g | tissue uptake at 4 h ([1]; fat, 4 h p.i., read-out: Biodistribution, Fat): 0.01 ± 0.01 %ID/g | tissue uptake at 24 h ([1]; fat, 24 h p.i., read-out: Biodistribution, Fat): 0.01 %ID/g | tissue uptake at 1 h ([1]; heart, 1 h p.i., read-out: Biodistribution, Heart): 0.19 ± 0.07 %ID/g | tissue uptake at 4 h ([1]; heart, 4 h p.i., read-out: Biodistribution, Heart): 0.03 %ID/g | tissue uptake at 24 h ([1]; heart, 24 h p.i., read-out: Biodistribution, Heart): 0.02 %ID/g | tissue uptake at 120 h ([1]; heart, 120 h p.i., read-out: Biodistribution, Heart): 0.01 %ID/g | tissue uptake at 1 h ([1]; intestine, 1 h p.i., read-out: Biodistribution, Intestine): 0.45 ± 0.2 %ID/g | tissue uptake at 4 h ([1]; intestine, 4 h p.i., read-out: Biodistribution, Intestine): 0.11 ± 0.06 %ID/g | tissue uptake at 24 h ([1]; intestine, 24 h p.i., read-out: Biodistribution, Intestine): 0.13 ± 0.04 %ID/g | tissue uptake at 120 h ([1]; intestine, 120 h p.i., read-out: Biodistribution, Intestine): 0.06 ± 0.07 %ID/g | tissue uptake at 1 h ([1]; kidneys, 1 h p.i., read-out: Biodistribution, Kidneys): 4.79 ± 0.92 %ID/g | tissue uptake at 4 h ([1]; kidneys, 4 h p.i., read-out: Biodistribution, Kidneys): 3.31 ± 0.66 %ID/g | tissue uptake at 24 h ([1]; kidneys, 24 h p.i., read-out: Biodistribution, Kidneys): 1.24 ± 0.46 %ID/g | tissue uptake at 120 h ([1]; kidneys, 120 h p.i., read-out: Biodistribution, Kidneys): 0.36 ± 0.05 %ID/g | tissue uptake at 1 h ([1]; liver, 1 h p.i., read-out: Biodistribution, Liver): 0.88 ± 0.16 %ID/g | tissue uptake at 4 h ([1]; liver, 4 h p.i., read-out: Biodistribution, Liver): 0.81 ± 0.08 %ID/g | tissue uptake at 24 h ([1]; liver, 24 h p.i., read-out: Biodistribution, Liver): 0.58 ± 0.14 %ID/g | tissue uptake at 120 h ([1]; liver, 120 h p.i., read-out: Biodistribution, Liver): 0.34 ± 0.03 %ID/g | tissue uptake at 1 h ([1]; lungs, 1 h p.i., read-out: Biodistribution, Lungs): 0.6 ± 0.19 %ID/g | tissue uptake at 4 h ([1]; lungs, 4 h p.i., read-out: Biodistribution, Lungs): 0.14 ± 0.04 %ID/g | tissue uptake at 24 h ([1]; lungs, 24 h p.i., read-out: Biodistribution, Lungs): 0.06 ± 0.02 %ID/g | tissue uptake at 120 h ([1]; lungs, 120 h p.i., read-out: Biodistribution, Lungs): 0.01 ± 0.01 %ID/g | tissue uptake at 1 h ([1]; muscle, 1 h p.i., read-out: Biodistribution, Muscle): 0.12 ± 0.05 %ID/g | tissue uptake at 4 h ([1]; muscle, 4 h p.i., read-out: Biodistribution, Muscle): 0.02 ± 0.01 %ID/g | tissue uptake at 24 h ([1]; muscle, 24 h p.i., read-out: Biodistribution, Muscle): 0.01 ± 0.01 %ID/g | tissue uptake at 1 h ([1]; pancreas, 1 h p.i., read-out: Biodistribution, Pancreas): 0.15 ± 0.05 %ID/g | tissue uptake at 4 h ([1]; pancreas, 4 h p.i., read-out: Biodistribution, Pancreas): 0.03 %ID/g | tissue uptake at 24 h ([1]; pancreas, 24 h p.i., read-out: Biodistribution, Pancreas): 0.03 ± 0.01 %ID/g | tissue uptake at 120 h ([1]; pancreas, 120 h p.i., read-out: Biodistribution, Pancreas): 0.01 %ID/g | tissue uptake at 1 h ([1]; spleen, 1 h p.i., read-out: Biodistribution, Spleen): 0.38 ± 0.11 %ID/g | tissue uptake at 4 h ([1]; spleen, 4 h p.i., read-out: Biodistribution, Spleen): 0.24 ± 0.03 %ID/g | tissue uptake at 24 h ([1]; spleen, 24 h p.i., read-out: Biodistribution, Spleen): 0.2 ± 0.04 %ID/g | tissue uptake at 120 h ([1]; spleen, 120 h p.i., read-out: Biodistribution, Spleen): 0.11 ± 0.01 %ID/g | tissue uptake at 1 h ([1]; stomach, 1 h p.i., read-out: Biodistribution, Stomach): 0.36 ± 0.22 %ID/g | tissue uptake at 4 h ([1]; stomach, 4 h p.i., read-out: Biodistribution, Stomach): 0.11 ± 0.02 %ID/g | tissue uptake at 24 h ([1]; stomach, 24 h p.i., read-out: Biodistribution, Stomach): 0.42 ± 0.18 %ID/g | tissue uptake at 120 h ([1]; stomach, 120 h p.i., read-out: Biodistribution, Stomach): 0.1 ± 0.08 %ID/g | tissue uptake at 1 h ([1]; thyroid, 1 h p.i., read-out: Biodistribution, Thyroid): 0.43 ± 0.11 %ID/g | tissue uptake at 4 h ([1]; thyroid, 4 h p.i., read-out: Biodistribution, Thyroid): 0.27 ± 0.06 %ID/g | tissue uptake at 24 h ([1]; thyroid, 24 h p.i., read-out: Biodistribution, Thyroid): 0.17 ± 0.01 %ID/g | tissue uptake at 120 h ([1]; thyroid, 120 h p.i., read-out: Biodistribution, Thyroid): 0.05 ± 0.02 %ID/g | tissue to tissue ratio at 1 h ([1]; tumour/blood, 1 h p.i., read-out: Tumour/blood): 19.2 ± 8.25 | tissue to tissue ratio at 4 h ([1]; tumour/blood, 4 h p.i., read-out: Tumour/blood): 414 ± 59 | tissue to tissue ratio at 24 h ([1]; tumour/blood, 24 h p.i., read-out: Tumour/blood): 652 ± 101 | tissue to tissue ratio at 120 h ([1]; tumour/blood, 120 h p.i., read-out: Tumour/blood): 466 ± 382 | tissue to tissue ratio at 1 h ([1]; tumour/kidney, 1 h p.i., read-out: Tumour/kidney): 1.75 ± 0.47 | tissue to tissue ratio at 4 h ([1]; tumour/kidney, 4 h p.i., read-out: Tumour/kidney): 2.46 ± 0.87 | tissue to tissue ratio at 24 h ([1]; tumour/kidney, 24 h p.i., read-out: Tumour/kidney): 3.08 ± 1.05 | tissue to tissue ratio at 120 h ([1]; tumour/kidney, 120 h p.i., read-out: Tumour/kidney): 1.44 ± 1.14 | tissue to tissue ratio at 1 h ([1]; tumour/muscle, 1 h p.i., read-out: Tumour/muscle): 75 ± 29.8 | tissue to tissue ratio at 4 h ([1]; tumour/muscle, 4 h p.i., read-out: Tumour/muscle): 452 ± 158 | tissue to tissue ratio at 24 h ([1]; tumour/muscle, 24 h p.i., read-out: Tumour/muscle): 320 ± 91.8 | tissue to tissue ratio at 120 h ([1]; tumour/muscle, 120 h p.i., read-out: Tumour/muscle): 117 ± 92.2 | excreta dose per gram or mL at 1 h ([1]; urine, 1 h p.i.): 222 ± 81.1 %ID/g | excreta dose per gram or mL at 4 h ([1]; urine, 4 h p.i.): 19.3 ± 4.21 %ID/g | excreta dose per gram or mL at 24 h ([1]; urine, 24 h p.i.): 0.94 ± 0.48 %ID/g | excreta dose per gram or mL at 120 h ([1]; urine, 120 h p.i.): 0.15 ± 0.07 %ID/g | Biodistribution, B16F10 tumour (B16F10 mouse melanoma; 1 h p.i.): 8.25 ± 1.94 % ID/g | Biodistribution, B16F10 tumour (B16F10 mouse melanoma; 4 h p.i.): 7.81 ± 2.16 % ID/g | Biodistribution, B16F10 tumour (B16F10 mouse melanoma; 24 h p.i.): 3.45 ± 0.30 % ID/g | Biodistribution, B16F10 tumour (B16F10 mouse melanoma; 120 h p.i.): 0.49 ± 0.36 % ID/g | Biodistribution, Blood (B16F10 mouse melanoma; 120 h p.i.): 0.00 ± 0.00 % ID/g | Biodistribution, Brain (B16F10 mouse melanoma; 120 h p.i.): 0.00 ± 0.00 % ID/g | Biodistribution, Fat (B16F10 mouse melanoma; 120 h p.i.): 0.00 ± 0.00 % ID/g | Biodistribution, Muscle (B16F10 mouse melanoma; 120 h p.i.): 0.00 ± 0.00 % ID/g
